Measurements as given in ChEMBL document CHEMBL6114970, “Development of carbazole-based molecules for inhibition of mutant hSOD1 protein aggregation in Amyotrophic Lateral Sclerosis” (Bioorg Med Chem, 2025).
The source made the active and inactive calls. The rule behind the calls is not given here.

Assays:
Homo sapiens [1] = organism: Homo sapiens; assay: Inhibition of TCEP-treated human SOD1 G93A mutant aggregation at 50 uM measured after 24 hrs by thioflavin-T fluorescence assay relative to control
Homo sapiens [2] = organism: Homo sapiens; assay: Inhibition of TCEP-treated human SOD1 A4V mutant aggregation assessed as formation of few slender fibrils at 50 uM measured after 24 hrs by 1% uranyl acetate staining based transmission electron microscopy
N2a [3] = assay: Protection against MG132-induced SOD1 aggregation-associated apoptosis in mouse Neuro2a cells over expressing hSOD1 G85R mutant assessed as upregulation of Xiap expression preincubated for 24 hrs followed by MG132 addition and measured after 24 hrs by Western blot analysis; format: functional, cell-based; conditions: time 48.0 hrs
N2a [4] = assay: Cytotoxicity against mouse Neuro2a cells over expressing hSOD1 G85R mutant assessed as reduction in cell viability up to 10 uM measured after 48 hrs by MTT assay; format: toxicity, cell-based
N2a [5] = assay: Protection against MG132-induced SOD1 aggregation-associated cytotoxicity in mouse Neuro2a cells over expressing hSOD1 G85R mutant assessed as increase in cell viability at 1 uM preincubated for 24 hrs followed by MG132 addition and measured after 24 hrs by MTT assay; format: functional, cell-based; conditions: time 48.0 hrs
N2a [6] = assay: Cytotoxicity against mouse Neuro2a cells over expressing hSOD1 G85R mutant assessed as reduction in cell viability at 25 uM measured after 48 hrs by MTT assay; format: toxicity, cell-based
Homo sapiens [7] = organism: Homo sapiens; assay: Inhibition of TCEP-treated human SOD1 G85R mutant aggregation at 50 uM measured after 24 hrs by thioflavin-T fluorescence assay relative to control
Homo sapiens [8] = organism: Homo sapiens; assay: Inhibition of TCEP-treated human SOD1 A4V mutant aggregation at 50 uM measured after 24 hrs by thioflavin-T fluorescence assay relative to control
[9] = (§1) Inhibition of TCEP-treated human SOD1 G85R mutant aggregation measured after 24 hrs by thioflavin-T fluorescence assay
Homo sapiens [10] = organism: Homo sapiens; assay: as §1
Homo sapiens [11] = organism: Homo sapiens; assay: Inhibition of TCEP-treated human SOD1 G93A mutant aggregation assessed as size of protein at 50 uM measured after 24 hrs at 37 deg C by dynamic light scattering analysis (reference value: 84.38 nm)
[12] = (§2) Inhibition of TCEP-treated human SOD1 A4V mutant aggregation measured after 24 hrs by thioflavin-T fluorescence assay
Homo sapiens [13] = organism: Homo sapiens; assay: as §2
N2a [14] = assay: Protection against MG132-induced SOD1 aggregation-associated cytotoxicity in mouse Neuro2a cells over expressing hSOD1 G85R mutant assessed as cell viability at 5 to 10 uM preincubated for 24 hrs followed by MG132 addition and measured after 24 hrs by MTT assay (reference value: 45%); format: functional; conditions: dose 5-10 µM, time 48 hrs
N2a [15] = assay: Protection against MG132-induced SOD1 aggregation-associated apoptosis in mouse Neuro2a cells over expressing hSOD1 G85R mutant assessed as early apoptotic cells preincubated for 24 hrs followed by MG132 addition and measured after 24 hrs by Annexin V-APC/propidium iodide staining based flow cytometry (reference value: 1.41 %); format: functional; conditions: time 48 hrs
Homo sapiens [16] = organism: Homo sapiens; assay: Inhibition of TCEP-treated human SOD1 G85R mutant aggregation assessed as size of protein at 50 uM measured after 24 hrs at 37 deg C by dynamic light scattering analysis (reference value: 151.1 nm)
[17] = (§3) Inhibition of TCEP-treated human SOD1 G93A mutant aggregation measured after 24 hrs by thioflavin-T fluorescence assay
Homo sapiens [18] = organism: Homo sapiens; assay: as §3
N2a [19] = assay: Protection against MG132-induced SOD1 aggregation-associated apoptosis in mouse Neuro2a cells over expressing hSOD1 G85R mutant assessed as upregulation of Bcl-2 expression preincubated for 24 hrs followed by MG132 addition and measured after 24 hrs by Western blot analysis; format: functional, cell-based; conditions: time 48.0 hrs
N2a [20] = assay: Protection against MG132-induced SOD1 aggregation-associated oxidative stress in mouse Neuro2a cells over expressing hSOD1 G85R mutant assessed as reduction in ROS level at 10 uM preincubated for 24 hrs followed by MG132 addition and measured after 24 hrs by H2DCFDA dye based flow cytometry; format: functional, cell-based; conditions: time 48.0 hrs
Homo sapiens [21] = organism: Homo sapiens; assay: Inhibition of TCEP-treated human SOD1 G93A mutant aggregation assessed as formation of few slender fibrils at 50 uM measured after 24 hrs by 1% uranyl acetate staining based transmission electron microscopy
N2a [22] = assay: Protection against MG132-induced SOD1 aggregation-associated apoptosis in mouse Neuro2a cells over expressing hSOD1 G85R mutant assessed as late apoptotic cells preincubated for 24 hrs followed by MG132 addition and measured after 24 hrs by Annexin V-APC/propidium iodide staining based flow cytometry (reference value: 20.93 to 23.01 %); format: functional; conditions: time 48 hrs
Homo sapiens [23] = organism: Homo sapiens; assay: Inhibition of TCEP-treated human SOD1 A4V mutant aggregation assessed as size of protein at 50 uM measured after 24 hrs at 37 deg C by dynamic light scattering analysis (reference value: 154.4 nm)
Homo sapiens [24] = organism: Homo sapiens; assay: Inhibition of TCEP-treated human SOD1 G85R mutant aggregation assessed as formation of few slender fibrils at 50 uM measured after 24 hrs by 1% uranyl acetate staining based transmission electron microscopy
N2a [25] = assay: Protection against MG132-induced SOD1 aggregation-associated apoptosis in mouse Neuro2a cells over expressing hSOD1 G85R mutant assessed as necrotic cells preincubated for 24 hrs followed by MG132 addition and measured after 24 hrs by Annexin V-APC/propidium iodide staining based flow cytometry (reference value: 2.23 %); format: functional; conditions: time 48 hrs
N2a [26] = assay: Protection against MG132-induced SOD1 aggregation-associated cytotoxicity in mouse Neuro2a cells over expressing hSOD1 G85R mutant assessed as restoration of cell viability by phase contrast microscopy; format: functional, cell-based
N2a [27] = assay: Protection against MG132-induced SOD1 aggregation-associated cytotoxicity in mouse Neuro2a cells over expressing hSOD1 G85R mutant assessed as restoration of normal morphology by phase contrast microscopy; format: functional, cell-based

SMILES	inhibition (Homo sapiens [2])	Activity (N2a [3])	Activity (N2a [4])	Activity (N2a [5])	Activity (N2a [6])	inhibition (Homo sapiens [7])	inhibition (Homo sapiens [8])	IC50 [9]	inhibition (Homo sapiens [10])	Activity (Homo sapiens [11])	IC50 [12]	inhibition (Homo sapiens [13])	Activity (N2a [14])	Activity (N2a [15])	Activity (Homo sapiens [16])	IC50 [17]	inhibition (Homo sapiens [18])	Activity (N2a [19])	Activity (N2a [20])	inhibition (Homo sapiens [21])	also measured
CCn1c2ccccc2c2cc(NC(=O)NNC(=S)Nc3ccc(F)cc3)ccc21	Active; Displayed Better Reduction In Aggregate Formation Than Curcumin	Active	Non-toxic	inactive	Toxic	76.8%	76.2%	23.4 µM	Dose-dependent-effect	21.7 nm	28.1 µM	Dose-dependent-effect	60%	1.19%	26.4 nm	29.1 µM	Dose-dependent-effect	Active	Active; Showed Better Reduction Compared To Curcumin	Active; Displayed Better Reduction In Aggregate Formation Than Curcumin	inhibition (Homo sapiens [1]): 80.7%; Activity (N2a [22]): 5.52%; Activity (Homo sapiens [23]): 27.7 nm; inhibition (Homo sapiens [24]): Active; Displayed Better Reduction In Aggregate Formation Than Curcumin; Activity (N2a [25]): 2.13%; Activity (N2a [26]): Active; Activity (N2a [27]): Active
COc1cc(/C=C/C(=O)CC(=O)/C=C/c2ccc(O)c(OC)c2)ccc1O [CURCUMIN]	Active	Active	Non-toxic	inactive	Toxic	42.8%	58.7%	64.1 µM	Dose-dependent-effect	31.7 nm	40.9 µM	Dose-dependent-effect	60%	0.97%	40.2 nm	32.3 µM	Dose-dependent-effect	Active	Active; Significant Effect Observed	Active	Activity (N2a [22]): 8.19%; Activity (Homo sapiens [23]): 52.1 nm; inhibition (Homo sapiens [24]): Active; Activity (N2a [25]): 2.58%; Activity (N2a [26]): Active; Activity (N2a [27]): Active
CCn1c2ccccc2c2cc(NC(=O)NNC(=S)Nc3ccccc3)ccc21	Active; Displayed Better Reduction In Aggregate Formation Than Curcumin	Active	Non-toxic	inactive	Toxic	74.8%	71.3%	31.3 µM	Dose-dependent-effect	25.2 nm	32.4 µM	Dose-dependent-effect	60%	1.04%	36.3 nm	26 µM	Dose-dependent-effect	Active	Active; Significant Effect Observed	Active; Displayed Better Reduction In Aggregate Formation Than Curcumin	inhibition (Homo sapiens [1]): 88.3%; Activity (N2a [22]): 8.26%; Activity (Homo sapiens [23]): 44.6 nm; inhibition (Homo sapiens [24]): Active; Displayed Better Reduction In Aggregate Formation Than Curcumin; Activity (N2a [25]): 2.64%; Activity (N2a [26]): Active; Activity (N2a [27]): Active
